Results on 1 substance are retold here after US8642539B2, “Method for treating a disease characterized by reduced appetite” (Takeda Pharmaceutical Company Limited, priority 2007, dated 2014).

Entries after “also recorded” stand apart in the source; their conditions may differ.

The subject of one test is wt mice. Briefly: Insl5 administered intraperitoneally, food intake in wt mice. Type of test: in vivo. The conditions noted are these: wt mice (129/SvEv), intraperitoneal, dose dependent; FIG. 9 upper panel. How it is done:
(§1) To test the hypothesis that Insl5 is an orexigenic hormone directly, it was administered intraperitoneally to wt and GPR100−/− mice. […] Moreover, this effect is mediated through GPR100.

For a further test, the system named is GPR100−/− mice. The experiment in a line: Insl5 administered intraperitoneally, feeding behaviour in GPR100−/− mice. The test is classed as in vivo. The conditions noted are these: intraperitoneal, FIG. 9 lower panel. How it is done:
as §1

For a further test, the target named is GPR100 (Homo sapiens, UniProt Q8TDU9). The note with it: mature Insl5; cited from earlier work.
Chain of GPR100 (Q8TDU9 whole entry, species assumed): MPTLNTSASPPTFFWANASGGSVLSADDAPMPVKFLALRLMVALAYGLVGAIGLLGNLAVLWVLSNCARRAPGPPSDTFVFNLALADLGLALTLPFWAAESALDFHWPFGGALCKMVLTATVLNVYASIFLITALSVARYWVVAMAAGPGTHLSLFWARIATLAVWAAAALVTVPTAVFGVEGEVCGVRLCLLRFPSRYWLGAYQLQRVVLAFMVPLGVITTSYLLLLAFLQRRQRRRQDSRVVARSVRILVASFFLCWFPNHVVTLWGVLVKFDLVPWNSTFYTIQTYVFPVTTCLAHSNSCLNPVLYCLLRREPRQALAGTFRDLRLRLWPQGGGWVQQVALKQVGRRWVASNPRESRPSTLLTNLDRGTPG

As to “insulin-like peptide 5 [Insl5, 45 amino acid residue mature peptide comprising an A chain and a B chain connected by disulfide bonds; endogenous ligand of GPR100]”, the food intake entry in the test on wt mice was “increase of food intake; also recorded: significant increase in food intake”. Moreover, in the test with GPR100−/− mice, the feeding behaviour entry was “no effect on feeding behaviour”. Besides, in the test with GPR100, the “affinity in displacing relaxin-3 peptide from GPR100” value was “high affinity, in the nanomolar range”.
